The METLIN SMRT retention time set (Domingo-Almenara et al. 2019)

Assay: gradient 5% acetonitrile 3 min, to 50% in 2 min, to 85% in 15 min, held 3 min, 100 µL/min
Details: column: Zorbax Extend-C18 2.1 x 50 mm; eluents: water / acetonitrile, 0.1% formic acid
Outline: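 Standards, all pure, were combined into mixtures of ~100 molecules and run at 100 μL/min on a Zorbax Extend-C18 column (2.1 × 50 mm, 1.8 μm) with water and acetonitrile, each containing 0.1% formic acid. A coupled quadrupole time-of-flight mass spectrometer operated in positive and negative ionization mode. Retention time values come from computationally picked adduct peaks, each inspected manually.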

Row | SMILES | RP-LC retention time [s]
1 | CCCN1CCn2cc(S(=O)(=O)Nc3ccc(OC)cc3)cc2C1=O | 715
2 | Cc1nnc(-c2ccc(S(=O)(=O)N3CCC(C)CC3)o2)o1 | 815
3 | Cc1ccc(S(=O)(=O)N2CC(C(=O)NC3CCCC3)Oc3ccc(C)cc32)cc1 (centres undefined) | 1140
4 | COc1cccc(C(=O)Nc2nc(-c3ccc(OC)c([N+](=O)[O-])c3)c(C)s2)c1 | 1070
5 | Cc1ccc(C)c(NC(=O)Cn2ncc3c(c2=O)N(C2CC2)C(=O)CS3)c1 | 732
6 | CCOC(=O)c1c(S(=O)(=O)N2CCC(C(=O)NC3CCCCCC3)CC2)c(C)n(C)c1C | 877
7 | O=C(Cc1ccc(Cl)cc1)N1CCCn2nc(-c3ccc(Cl)cc3)cc2C1 | 1050
8 | COc1ccc(-n2ccn3cc(-c4ccc(Br)cc4)nc3c2=O)cc1 | 891
9 | Cc1ccc(NC(=O)N2CCc3cn(C)c4cccc(c34)C2)cc1C | 981
10 | CCN1C(=O)COc2ccc(-c3noc(C4CCN(C(C)=O)CC4)n3)cc21 | 744
11 | Cc1nnc(-c2ccc3ccn(CC(=O)Nc4ccc(Cl)cc4F)c3c2)o1 | 887
12 | O=C(Nc1cccc(-c2cn3cccnc3n2)c1)c1ccccc1Cl | 666
13 | O=c1[nH]ccc2c(O)cccc12 | 584
14 | O=C(O)c1ccc(N2CCOCC2)c(NC(=O)c2ccc(Br)cc2)c1 | 828
15 | O=c1c(S(=O)(=O)N2CCCC2)cccn1Cc1nc(-c2ccccc2Cl)no1 | 808
16 | CCn1cc(-c2ccncc2)cc1C(=O)NCc1cc(C)ccc1C | 705
17 | CCCC(CCC)C(=O)NCc1nnnn1-c1ccc(OCC)cc1 | 882
18 | CCCCOc1ccc(-c2nc3ncccn3c2NC2CCCCC2)cc1 | 957
19 | COc1cccc(C(C)NC(=O)C2CCCN(c3nccnc3Sc3ccc(C)cc3)C2)c1 (centres undefined) | 1120
20 | O=C(Cn1nc2c3ccc(Cl)cc3ncn2c1=O)NCc1ccccc1 | 716
21 | Cc1occc1C(=O)NC1CCc2nn(CC3CC3)c(=O)n2CC1 (centres undefined) | 636
22 | COc1ccc(-c2cc(N3CCC(NC(=O)c4cccc(C#N)c4)C3)n[nH]2)cc1 (centres undefined) | 692
23 | CCc1noc(NC(C)=O)c1-c1ccc(C)c(S(=O)(=O)N2CCN(c3ccccc3)CC2)c1 | 964

Row | SMILES | RP-LC retention time [s]
24 | CN1CCN(c2ccc(-c3ccc(NC(=O)Nc4cccc(Cl)c4)cc3)nn2)CC1 | 588
25 | Cc1ncc(-c2ccnc(Nc3ccc(S(C)(=O)=O)cc3)n2)n1C(C)C | 636
26 | COc1ccc(OC)c(NC(=O)CN2CCc3[nH]c4c(C)cc(F)cc4c(=O)c3C2)c1 | 640
27 | Cc1cc(C)n(CCC(=O)NCC2Cn3cccc3C(=O)N2C)n1 (centres undefined) | 593
28 | Cc1cnc(C(=O)N2CCC(c3noc(-c4ccncc4)n3)C2)cn1 (centres undefined) | 645
29 | O=C(NCCCO)C(=O)NCCc1ccc(Cl)cc1 | 698
30 | CCc1sc(NC(=O)Cc2ccc(C)cc2)nc1-c1ccccc1 | 1150
31 | CCc1ccc(NC(=O)C2CCN(S(=O)(=O)c3ccc4c(c3)S(=O)(=O)N=CN4)CC2)cc1 | 806
32 | CC1=C(c2ccccc2)S(=O)(=O)N=C1N1CCCN(C(=O)c2ccco2)CC1 | 719
33 | Cc1ccc(C)c(C(=O)Nc2cccn3nc(C(C)C)nc23)c1 | 1010
34 | CC(C)Cn1cc(CCNS(=O)(=O)c2ccc3c(c2)CCC3)c2cccnc21 | 1040
35 | Cc1sc2cc(C(=O)NCCN3CCOCC3)[nH]c2c1CN1CCCCC1 | 551
36 | COc1cccc(N2CCN(C(=O)C3CCN(c4cncnc4N(C)C)CC3)CC2)c1 | 648
37 | CC(C)n1c(=O)c(Nc2cccc(Cl)c2)nc2ccncc21 | 649
38 | CC(C)Oc1ccc(-c2noc(CCn3nc(-c4ccc(F)cc4)ccc3=O)n2)cc1 | 1100
39 | Cc1nc(-c2cccc(-c3noc(CNC(=O)c4ccccc4)n3)c2)cs1 | 918
40 | CCCCc1cc(=O)oc2cc(C)cc(OCC(=O)N3CCC4(O)CCCCC4C3)c12 (centres undefined) | 933
41 | O=C(Nc1ccccc1Cl)N1CCN(c2cc(-c3ccncc3)[nH]n2)CC1 | 600
42 | Cc1cc2c(c(=O)n(-c3ccccc3)c(=O)n2CC(=O)N(C)c2ccccc2)n1C | 806
43 | CCCN(C(C)=O)c1nc(-c2ccc(C3CCCCC3)cc2)cs1 | 748
44 | Cc1nc(-c2cn(C(C)C)c3ncccc23)sc1C(=O)N(C)Cc1ccccc1 | 1050
45 | Cc1cc(NC(=O)NC(=O)c2ccccc2NC(=O)C(C)N)ccc1Oc1ncc(Br)cn1 (centres undefined) | 715
46 | CSc1ccc(CNC(=O)C2CCCN(c3ccc(=O)n(-c4ccc(C)c(Cl)c4)n3)C2)cc1 (centres undefined) | 1010

Row | SMILES | RP-LC retention time [s]
47 | CCN1c2ccc(C)cc2C(=O)NC12CCN(C(=O)c1cc(OC)cc(OC)c1)CC2 | 828
48 | O=C(CN1C(=O)CCCc2cc(S(=O)(=O)N3CCCCCC3)ccc21)NC1CCCCC1 | 987
49 | O=C(NCCCN1CCOCC1)C1CCc2sc(C(=O)N3CCCC3)cc2C1 (centres undefined) | 576
50 | Cc1sc2ccn(C)c(=O)c2c1C(=O)NC1CCCCCC1 | 804
51 | CNC(=O)N1CCCC(c2cccc(C(=O)NC(C)c3ccc(C)cc3C)c2)C1 (centres undefined) | 880
52 | CC1CCN(S(=O)(=O)c2ccc(-c3nnc(C(=O)NCC(C)c4ccccc4)o3)cc2)CC1 (centres undefined) | 1140
53 | Cc1ccc2nc(C(=O)NCCN3CCCCC3C)cn2c1 (centres undefined) | 552
54 | CCN1CCCC1CNC(=O)C1CCN(S(=O)(=O)c2ccc3c(ccn3CC)c2)CC1 (centres undefined) | 664
55 | CCN1C(=O)COc2ccc(-c3csc(NC(=O)c4ccccc4)n3)cc21 | 952
56 | CNC(=O)c1cc[nH]c1C1CCCN(C(=O)C2CC=CCC2)C1 (centres undefined) | 672
57 | Cc1ccccc1N1C[C@@]23C=C[C@@H](O2)[C@H](C(=O)OC(C)C)[C@@H]3C1=O | 785
58 | Cc1ccc2c(Nc3cccc(C#N)c3)c(C(=O)N3CCCC3)cnc2n1 | 579
59 | Cn1nnnc1SCC(=O)NCCCC(=O)Nc1cccc2cccnc12 | 620
60 | COC(=O)c1ccc(NS(=O)(=O)c2cc(-c3c(C)noc3NC(C)=O)ccc2OC)cc1 | 720
61 | CCn1ccc(C(=O)N2CCCn3cc(-c4cccc(C#N)c4)nc32)n1 | 639
62 | Cn1nc(C(=O)N2CCCC(C(=O)Nc3ccccc3)C2)c2c1CCN(C(=O)C1CCCCC1)C2 (centres undefined) | 796
63 | Cc1cc(C)c2c(-n3cccc3)c(C(=O)N3CCN(c4ccccn4)CC3)sc2n1 | 675
64 | CCN1C(=O)c2cccnc2Sc2cc(NC(C)=O)ccc21 | 627
65 | O=C(CCC1CCCN(c2cc(NC3CC3)ncn2)C1)NCc1cccnc1 (centres undefined) | 560
66 | CCCCCn1c(=O)c2ccccc2n(Cc2nc(-c3ccc(OCC)c(OC)c3)no2)c1=O | 1230
67 | COc1ccc(NC(=O)NCC23CCCC=C2NC(=O)CC3)cc1 (centres undefined) | 593
68 | CN(Cc1nc(-c2ccc(N3CCCCC3)nc2)no1)C1CCCCC1 | 666
69 | O=C(Nc1ccc2c(c1)OCO2)N1CCN(c2nc3ccccc3n(Cc3ccccc3)c2=O)CC1 | 1010

Row | SMILES | RP-LC retention time [s]
70 | CC(C)(C)C(=O)N[C@H](Cc1ccccc1)C(=O)NCc1cscn1 | 714
71 | Fc1ccc(-c2noc(Cc3nnc(-c4ccc(F)cc4)o3)n2)cc1 | 991
72 | CCc1noc2ncnc(NCCN(C)Cc3ccccc3)c12 | 595
73 | Cc1cc(C)cc(NC(=O)CN2C(=O)C3CCCCN3c3ccc(S(=O)(=O)N(C)C)cc32)c1 (centres undefined) | 994
74 | O=C(O)c1cc(-c2ccncc2)nc2ccccc12 | 572
75 | COc1ccc(C)cc1NC(=O)Cn1nc(N2CCSCC2)c2ccccc2c1=O | 1040
76 | Cc1ccc(C2Cn3cnc(C(=O)N4CCC(C(=O)NCc5ccccc5Cl)CC4)c3CO2)cc1 (centres undefined) | 823
77 | CCCCC(=O)Nc1nc(-c2ccc3c(c2)N(CCC)C(=O)CO3)cs1 | 1010
78 | O=C(NC1CCCC1)N1CCN(c2nc3cccnc3n(Cc3ccccc3)c2=O)CC1 | 1030
79 | Cc1ccc2cc(CN3CCC4(CC3)CC(C)(O)CCO4)c(=O)[nH]c2c1 (centres undefined) | 603
80 | O=C1CC(c2noc(CCc3ccccc3)n2)CN1c1ccc(F)cc1 (centres undefined) | 966
81 | Cc1ccccc1-c1noc(C2CCCN2C(=O)Nc2cccc(Cl)c2)n1 (centres undefined) | 1080
82 | C[C@@H](O)[C@H](NC(=O)c1ccc(C#Cc2ccc(CN3CCOCC3)cc2)cc1)C(=O)NO | 629
83 | CCC(=O)N1CCCN(C2=NS(=O)(=O)C(c3ccc(C)c(C)c3)=C2C)CC1 | 766
84 | CCCCn1c(=O)c2ccccc2n(Cc2nc(-c3cccc(C(F)(F)F)c3)no2)c1=O | 1240
85 | COc1ccc2c(c1O)-c1cccc3c1[C@@H](C2)N(C)CC3 | 643
86 | CCn1cc(C)c(C(=O)O)c1CC(=O)N(C)c1ccc(C)c(C)c1 | 1000
87 | CCc1cc(C(=O)N2CCN(CC(C)C)CC2)nc2cc(-c3ccco3)nn12 | 734
88 | Cc1cccc(NC(=O)Cn2cnc3c(sc4nc(-c5ccccc5)ccc43)c2=O)c1 | 1040
89 | CCOC(=O)c1ccc(Nc2nc(C(=O)OCC)nc3ccccc23)cc1 | 896
